In patent publication US11820763B2, “Bromophenol-pyrazoline compound and synthesis method and use thereof” (Lead High Technology (QingDao) Co., Ltd, priority 2020, dated 2023):

System: COVID-19 virus
Assay: Inhibition of COVID-19 virus replication in Vero E6 cells (vRNA in supernatant by qRT-PCR)
Type: cell-based, COVID-19 virus (clinical isolates) in Vero E6 cells
Conditions: for antiviral effect (viral RNA replication): Vero cells infected with COVID-19 virus, MOI 0.05, compound at concentrations of 30 μM and 10 μM, FIG. 2
Experimental: In order to further confirm the results of enzyme inhibition in vitro, whether the bromophenol-pyrazoline compounds can prevent COVID-19 virus replication in Vero E6 cells infected with clinical isolates of COVID-19 virus was evaluated in the present invention.
Specific operations: The pre-seeded Vero E6 cells (5×10^4 cells/well) were pre-treated for 1 hr with various concentrations of bromophenol-pyrazoline compounds to be tested, and then infected for 2 hrs by adding COVID-19 virus (with an MOI of 0.05). Then, the mixture of the virus and compound was removed, and the cells were further incubated in a fresh medium containing the bromophenol-pyrazoline compound. After 24 hrs, the cell supernatant was collected, and the vRNA in the supernatant was analyzed by qRT-PCR.

Structure (SMILES)	EC50 (Severe acute respiratory syndrome coronavirus 2, Vero C1008, read-out: EC50, inhibition of virus replication) [µM]	antiviral effect (viral RNA replication)
CCOc1ccc(Oc2ccc(C3=NNC(c4cc(O)c(O)c(Br)c4Br)C3)cc2)cc1 (stereo not shown) [Compound 6a, 3,4-dibromo-5-(3-(4-(4-ethoxyphenoxy)phenyl)-4,5-dihydro-1H-pyrazol-5-yl)-1,2-dihydroxybenzene]	4.45	strong antiviral effects
CCOc1ccc(Oc2ccc(C3=NN(C=O)C(c4cc(O)c(O)c(Br)c4Br)C3)cc2)cc1 (stereo not shown) [Compound 6b, 5-(2,3-dibromo-4,5-dihydroxyphenyl)-3-(4-(4-ethoxyphenoxy)phenyl)-4,5-dihydro-1H-pyrazol-1-carboxaldehyde]		strong antiviral effects
CCOc1ccc(Oc2ccc(C3=NN(C(C)=O)C(c4cc(O)c(O)c(Br)c4Br)C3)cc2)cc1 (stereo not shown) [Compound 6c, 5-(2,3-dibromo-4,5-dihydroxyphenyl)-3-(4-(4-ethoxyphenoxy)phenyl)-4,5-dihydro-1H-1-acetyl pyrazole]		strong antiviral effects
